“Also recorded” adds a separate entry of the source.
Experiments:
[1] = system: VEGF-induced NO release (eNOS activity) in BAEC; test: VEGF-induced NO release in cultured BAEC; assay type: cell-based, bovine; conditions: for effect on VEGF-induced NO release (in words) / inhibition of VEGF-induced NO release: 6 h pretreatment; for effect on basal (unstimulated) NO release: six-hour pretreatment, NO-specific chemiluminescence
Procedure: VEGF-induced NO release experiments were performed as previously described.
[…] Media was removed and fresh serum-free DMEM was added, with or without VEGF (10^−9 M) for 30 minutes. Media was collected, cells were trypsinized and counted, and nitrites levels in the supernatant were determined by using a Sievers NO chemiluminescence analyzer.

BAEC = test: Quantification of internalization of fluorophore-labelled peptides; assay type: cell-based, bovine; conditions: cultured endothelial cells
Procedure: Cultured BAEC were grown in 6-well plates until confluence was reached. Cells were washed and incubated in 1 mL of DMEM containing labeled peptides (10^−6 M) for 1, 2, 4 or 6 hours at 37° C., washed three times with cold PBS containing 0.1 M glycine (pH 4) to remove non-specific surface staining.
After complete media removal, cells were trypsinized, centrifuged and proteins were extracted by adding 150 μL of SDS-based or Triton X-100 lysis buffer. Membranes were removed by centrifugation, and internalized peptides were quantified by using a fluorescence plate reader (Perseptive Biosystems).
Cells incubated with peptides for 5 minutes and washed as described were used as basal surface staining. Linearity of both fluorophores used was determined by performing a concentration-fluorescence curve using lysis solution. Experiments with each fluorophore were performed individually to prevent cross-interference.

HUVEC = test: CPP imaging of live HUVEC (pulse/chase epifluorescence microscopy); assay type: cell-based, human; conditions: for intracellular staining after pulse: carboxyfluorescein-Endo5 and rhodamine-AP, 10^−6M, 1 h at 37° C.; for intracellular staining after chase: two-hour chase in absence of CPP
Procedure: Freshly isolated HUVEC were grown in M199 media supplemented with glutamine, 10% FBS and endothelial cell growth supplement on Petri dishes with glass bottom. Since CPPs bind non-specifically to glass, the background fluorescence was reduced by pretreating glass-bottom Petri dishes with a blocking solution containing unlabelled AP and Endo5 for 30 minutes (5×10^−5 M) in colorless M199 media with 1% FBS.
After cell seeding, media was removed and carboxyfluorescin-labeled Endo5 and Rhodamine-labeled AP were added to cells (10^−5M) and cells were incubated at 37° C. and 5% CO2 for 1 hour (pulse). Media was removed, cells were rinsed once with warm culture media and peptide uptake was rapidly visualized on a Zess Axiovert inverted fluorescence microscope by performing a Z-stack of captured images followed by volume deconvolution (Openlab software). The new media was left on cells for an additional 2 hours (total 3 hours) to chase CPP localization, and cells were visualized again (chase).
In the present study, epifluorescence microscopy experiments were performed in live HUVEC to compare the uptake mechanism of Endo5 to AP. After blocking glass bottom Petri dishes with unlabeled AP and Endo5 to minimize non-specific binding of labeled peptides, freshly isolated HUVEC were grown to 50% confluent and labeled with a “pulse” of carboxyfluorescein-Endo5 and rhodamine-AP (10^−6M) for 1 h, rinsed, followed by a two-hour “chase” for a total of 3 hours.

[2] = system: mustard oil-induced vascular permeability; assay type: in vivo, mouse; conditions: mice, one-hour pretreatment, AP-Cav 1 mg/kg or same molar dose, vs carrier peptide alone, 30 min
Procedure: Plasma leakage in mouse skin was studied using the Miles assay as previously described. Briefly, male Swiss mice (30-35 g) were anesthetized and injected with Evans blue (30 mg/kg in PBS; Sigma). […] (5% in mineral oil), an analog of mustard oil (Pierce, Rockford, Ill.) was applied on the right ear with a cotton tip. The left ear was used as a control and was treated with mineral oil alone. After 30 minutes, the anesthetized animals were sacrificed, perfused, ears were removed, dried and weighed. Evans blue was extracted from the ears with formamide and quantified spectrophotometrically at 595 nm.

traumatic brain injury = test: Traumatic brain injury, controlled cortical impact model; assay type: in vivo, rat; conditions: rats
Description: Sprague Dawley rats (10 week old) are anesthetized using 1-2% isoflurane and fixed in a stereotactic frame. The skull is surgically exposed and a craniectomy 2.5 mm in radius is made centered on coordinates −0.2 mm anterior and +0.2 mm lateral to midlineat the fronto-parietal cortex. A controlled cortical impactor (Pittsburgh Precision Instruments, Inc., Pittsburgh, Pa.) is used to deliver an impact using a velocity of 6.0 m/s and depth of 1.0 mm below the dura mater and duration of impact of 150 ms. The impactor is angled to impact the skull perpendicular to the brain at the point of impact. Animals are maintained at normal body temperature throughout the procedure. Following the impact, the incision is sutured and the animals are allowed to recover.
Neurological deficits are scored using the system of Clark assessed 24 and 48 hours post injury. See, Clark W et al., Citicoline treatment for experimental intracerebral hemorrhage in mice. Stroke; a journal of cerebral circulation. 1998; 29(10):2136-40. PubMed PMID: 9756595.
At 48 hours post TBI, rats are sacrificed and the brains sectioned and tissue processed for immunohistochemistry. […] See, Glushakov et al., Prostaglandin F2alpha FP receptor antagonist improves outcomes after experimental traumatic brain injury, Journal of neuroinflammation. 2013; 10(1):132. doi: 10.1186/1742-2094-10-132. PubMed PMID:24172576.

[3] = system: dextran sulfate sodium colitis; test: Dextran sulfate sodium model of inflammatory bowel disease; assay type: in vivo, mouse; conditions: C57B1/6 mice, DSS 2% in drinking water, 2.5 mg/kg i.p. daily from day 1
Procedure: C57B1/6 mice are fed dextran sulfate sodium 2% in the drinking water for 9 days. Body weights are measured daily. At the end of 9 days, mice are sacrificed and the first distal centimeter of the colon subject to histopathological analysis. Sections are scored according to the scoring system described in Jirkof et al., Burrowing is a sensitive behavioral assay for monitoring general wellbeing during dextran sulfate sodium colitis in laboratory mice. Laboratory animals. 2013, 47(4):274-83. doi: 10.1177/0023677213493409. PubMed PMID:23828853.

[4] = system: experimental autoimmune encephalitis; conditions: experimental model of autoimmune encephalitis; cited from earlier work
multiple sclerosis = test: Treatment of patients diagnosed with multiple sclerosis; assay type: in vivo, human; conditions: 80 mg per day by subcutaneous injection
Procedure: Patients diagnosed with MS, including relapsing remitting and primary progressive types, are treated with Endo-5 CavAB (SEQ ID NO.1/SEQ ID NO. 6) (or other caveolin analog) at 80 mg per day by subcutaneous injection. […] The changes in the patient receiving the treatment are measured using the Multiple Sclerosis Functional Composite. See, e.g., the website of the National MS Society: Clinical Study Measures.

[5] = BAEC, peptide 10^−5 M, VEGF 10^−9 M 30 min

## RRPPR [Endo5, five-amino acid cell-permeable transport peptide]
[1]; [5]
  effect on VEGF-induced NO release (in words): no significant effect
[1]; BAEC, 10^−5 M
  effect on basal (unstimulated) NO release: no significant effect
BAEC
  rate of uptake / internalization relative to AP: three times greater
HUVEC
  intracellular staining after pulse: diffuse punctate cytoplasmic staining
  intracellular staining after chase: more concentrated rather than diffuse pattern

## Endo5 (RRPPR) with cargo DGIWKASFTTFTVTKYWFYR, caveolin-1 amino acids 82-101, fused to its C-terminus (RRPPRDGIWKASFTTFTVTKYWFYR; listed as Homo sapiens) [Endo5-Cav]
[1]; BAEC, 10^−5 M, 4 hours pretreatment
  eNOS inhibition (VEGF-induced NO release), in words: complete eNOS inhibition
[1]; BAEC, Endo5-Cav 10^−5 M 6 h, AP 5×10^−5 M pretreatment
  inhibition of VEGF-induced NO release after pretreatment with AP: 30%
[1]; BAEC, Endo5-Cav 10^−5 M 6 h, Endo5 5×10^−5 M pretreatment
  inhibition of VEGF-induced NO release after pretreatment with Endo5: 13%
[1]; BAEC, construct 10^−5 M 6 h, AP or Endo5 5×10^−5 M
  fate of the inhibition of VEGF-induced NO release after pretreatment with either AP or Endo5: partially prevented
[1]; [5]
  effect on VEGF-induced NO release (in words): completely impaired; also recorded: near-maximum effect; also recorded: completely blocked
  inhibition of VEGF-induced NO release: 91%
[1]; BAEC, 10^−5 M
  effect on basal (unstimulated) NO release: no significant effect
[1]; inferred from 2 h Endo5-Cav vs 6 h AP-Cav pretreatment, 10^−5 M
  rate of uptake relative to AP-Cav: approximately three times
[2]
  inhibition of mustard oil-induced vascular leakage: 58%

## cavtratin: caveolin mimetic, a fusion peptide of a cell penetrating peptide to the caveolin scaffolding domain; first generation (RQIKIWFQNRRMKWKKDGIWKASFTTFTVTKYWFYR)
Traumatic brain injury; 2.5 mg/kg i.p. immediately after TBI and at 24 hours, scored 24 and 48 hours post injury
  neurological deficits (Clark score): reduces the observed neurological deficits
Traumatic brain injury; 2.5 mg/kg i.p., 48 hours post TBI
  GFAP expression in the lesion penumbra: reduces GFAP expression
[3]
  histopathologic score of the colon: improve the histopathologic sore
  weight loss at 9 days: reduce the weight loss
[4]
  blood brain barrier disruption: inhibited
  clinical score / functional deficits: improve; also recorded: ameliorates
  edema: block
  inflammatory cell (CD45+) invasion into the brain parenchyma: block; also recorded: inhibited

## Endo5-CavAB: 19-mer: Endo5 fused to Cav AB domain (amino acids 82-95 of human caveolin-1); second generation cavtratin (RRPPRDGIWKASFTTFTVT; listed as Homo sapiens)
[1]; BAEC, peptide 2×10^−6 M
  inhibition of VEGF-induced NO release: 49%
[1]; [5]
  effect on VEGF-induced NO release (in words): completely blocked
[3]
  histopathologic score of the colon: improve the histopathologic sore
  weight loss at 9 days: reduce the weight loss
Multiple sclerosis
  symptoms of MS (motor function, gait): improves the symptoms of MS

## RQIKIWFQNRRMKWKK (listed as Rattus norvegicus) [AP, 16-mer Antennapedia cell-permeable peptide, reference compound]
[1]; [5]
  effect on VEGF-induced NO release (in words): no significant effect
[1]; BAEC, 10^−5 M
  effect on basal (unstimulated) NO release: no significant effect
HUVEC
  intracellular staining after pulse: diffuse punctate cytoplasmic staining
  intracellular staining after chase: more concentrated rather than diffuse pattern

— patent US10537607B2, “Treatment of autoimmune and/or inflammatory disease using novel caveolin modulators” (E&B TECHNOLOGIES LLC, priority 2013, dated 2020)
